Test results as given in US7632862B2, “Pharmaceutical compositions that modulate HPTPbeta activity” (Procter & Gamble Company, priority 2002, dated 2009).

Experiments:
[1] = system: Tie-2; assay: Ligand-induced Tie-2 phosphorylation in endothelial cells (anti-phosphotyrosine western blot); format: cell-based, human; conditions: endothelial cells pretreated 30 minutes with 0.1 mM or 1 mM; vs vehicle; p<0.05
Protocol: (§1) VEGFR2 and Tie-2 receptor phosphorylation is assayed by anti-phosphotyrosine western blotting following immunoprecipitation of the receptors from endothelial cells or receptor transfected 293 cells. Briefly, endothelial cells (HUVEC's) are plated on 100 mm dishes, stimulated with a dose range of either recombinant VEGF165 or recombinant Angiopoietin-1 (R&D Systems, resuspended in PBS containing 0.2% bovine serum albumin) for 5 or 7 minutes, respectively. […] Signal is detected using HRP labeled secondary antibodies and ECL solution (Amersham). […] Resulting films are scanned and quantitated using Quantity-One software (Bio-Rad) and results reported as the amount of phosphotyrosine signal over receptor signal (P-Tyr/Receptor).
(§2) Transfection in HUVEC's is performed with the above-mentioned antisense oligos at a 200 nM final concentration using LIPOFECTIN™ (Invitrogen), a reagent for transfectin of endothelial cells and transfection of DNA or RNA into cell lines, in OPTIMEM™-I (Gibco), a modification of Eagles Minimum Essential Medium, buffered with HEPES and sodium bicarbonate (2.4 g/L) and supplemented with hypoxanthine, thymidine, sodium pyruvate, L-glutamine, trace elements, and growth factors, according to the manufacturers instructions. […] Uptake efficiency is monitored in every transfection using a fluorescently labeled oligonucleotide and determined to be >90% in every experiment.” […]

[2] = system: Human umbilical vein endothelial cells (HUVEC); assay: Endothelial cell survival (CellTiter-Glo); format: cell-based; conditions: 500 μM compound
Protocol: Methods: Human umbilical vein endothelial cells (HUVEC, Clonetics) were seeded at 10,000/well in a 96-well plate for 2 hours in EGM media (Clonetics). The cells were then serum-deprived for 2 hours in DMEM (Invitrogen) supplemented with 0.2% bovine serum albumin. Quadruplicate wells were then treated with either vehicle or 500 μM Compound in the presence or absence of either 500 pM recombinant human VEGF165 or 250 ng/mL recombinant human Angiopoietin-1 (Ang-1) (R&D Systems) for 72 hours in DMEM supplemented with 0.2% bovine serum albumin. Cells remaining after incubation were detected using the CellTiter-Glo™ System according to the manufacturers instructions (Promega) and measured using a Victor V plate reader (Perkin Elmer/Wallac).

[3] = target: T1, HPTPbeta (Homo sapiens, UniProt P23467); assay: Inhibition of recombinant HPTPbeta phosphatase activity (DiFMUP substrate); format: biochemical; conditions: assay as in Example 2
T1 construct: GST (N, cleaved yes); His6 (C); made in house; host or cells: E. coli BL21-RIL
T1 sequence (P23467 with tags, fused parts or gaps): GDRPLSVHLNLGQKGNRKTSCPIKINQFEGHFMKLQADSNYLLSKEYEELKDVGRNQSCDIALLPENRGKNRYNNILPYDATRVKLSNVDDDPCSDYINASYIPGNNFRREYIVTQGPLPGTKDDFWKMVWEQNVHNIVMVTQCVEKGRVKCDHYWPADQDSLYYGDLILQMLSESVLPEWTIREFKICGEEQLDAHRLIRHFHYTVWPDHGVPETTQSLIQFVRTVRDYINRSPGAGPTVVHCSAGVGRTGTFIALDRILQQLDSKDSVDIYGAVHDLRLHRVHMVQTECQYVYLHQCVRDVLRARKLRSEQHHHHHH
Protocol: Methods: Expression and purification of recombinant HPTPbeta catalytic domain [SEQ ID NO: 16] is accomplished by subcloning the intracellular domain of HPTPbeta (cDNA clone starting at the codon for amino acid 1662 through the stop codon) into the pGEX4T1 vector (Pharmacia) and expressed as a GST-fusion protein in E. coli BL21-RIL cells (Stratagene). Induced cells are thawed on ice and resuspended in 20 mM Tris-HCl, pH=8.0, 1% Trition x-100, 2 mM DTT and EDTA-free protease inhibitor cocktail. 10 mg/ml lysozyme is added and cells are lysed by sonication. The cell debris is pelleted using the Beckman J2-MI at 17,000 rpm. The supernatant is added to prepared glutathione sepharose 4B resin batch method. After binding, the column is poured and packed with the resin/protein mixture and then washed. […]
Measurements of recombinant phosphatase activity are performed using the substrate DiFMUP (6,8-difluoro-4-methylumbelliferyl phosphate) from Molecular Probes. […] Measurements of increased substrate fluorescence, indicative of phosphatase activity, are observed at an excitation wavelength of 355 nm and an emission wavelength of 460 nm using a Victor V plate reader (Wallac).
Methods: The potency of a class of HPTPbeta inhibitors was optimized by iterative screening for inhibition of HPTPbeta activity measured as described in Example 2. […]

[4] = system: VEGFR2; assay: Ligand-induced VEGFR2 phosphorylation in endothelial cells (anti-phosphotyrosine western blot); format: cell-based, human; conditions: endothelial cells pretreated 30 minutes with 0.1 mM or 1 mM; vs vehicle; p<0.05
Protocol: as §1, §2

[5] = system: Rat thoracic aortic rings; assay: Rat aortic ring explant angiogenesis assay; conditions: 100 μM and 300 μM; p<0.05 vs control
Protocol: Methods: The isolated rat aortic ring model of angiogenesis is performed using the thoracic aorta from 150-175 gram, male Sprague-Dawley rats (Charles River). The excised thoracic aorta is placed in sterile saline solution and transferred to endothelial basal media (EBM, Clonetics) containing 1% antibiotics/antimycotic (Gibco BRL). Periadventitial fibroadipose tissue and any visible blood clots were removed. Aortas are cross-sectioned at ˜1 mm intervals and the resulting tissues placed in 100 μl of Dulbecco's Modified Eagle Medium (DMEM) containing 2% FBS, in the presence or absence of adenovirus for green fluorescent protein, empty virus or HPTPbeta (all at 1.0×10^11 virus particles/ml), as described. Rings are incubated for 30 minutes at 37° C. in a humidified incubator under a constant 5% CO2 atmosphere. Following adenoviral infection, aortic rings were washed with EBM and placed in a 24-well tissue culture plate. Aortic rings are overlaid with 450 μl of collagen solution consisting of 8 volumes of 3 mg/ml rat tail collagen (Sigma) in 0.1% acetic acid, 1 volume of 10× M-199 supplemented with 100 mg/ml L-glutamine, and 1 volume of 10× collagen buffer (0.0SN NaOH, 200 mM HEPES, 260 mM NaHCO3). […] Images (TIFF) are taken using a SPOT camera connected to a Nikon inverted microscope and analyzed (vessel extent and area) using automated image analysis software. […]

[6] = system: panel of recombinant phosphatases; assay: Selectivity against a panel of recombinant phosphatases; format: biochemical; conditions: all panel phosphatases except the closely related HPTPeta
Protocol: FIG. 10. Compound 1 ((R)-[1-Methylcarbamoyl-2-(4-sulfoamino-phenyl)-ethyl]-carbamic acid tert-butyl ester) is a selective HPTPbeta inhibitor. Compound 1 was assayed for inhibition of a panel of recombinant phosphatases essentially as described in Example 2 for HPTPbeta. This compound was at least 10 fold selective for HPTPbeta over the other phosphatases tested except for the closely related HPTPeta.
Methods: The potency of a class of HPTPbeta inhibitors was optimized by iterative screening for inhibition of HPTPbeta activity measured as described in Example 2. […] To determine selectivity, compound 1 was tested against a panel of several other recombinant phosphatases (FIG. 10). VEGFR2 and Tie-2 receptor activation was assayed as mentioned in example 4. However, to assess the effect of the HPTPbeta inhibitor, the cells were pretreated for 30 minutes prior to stimulation with either 0.1 mM or 1 mM Compound 1 in Opti-MEM media (Invitrogen) at 37° C./5% CO2. Results: A potent and selective HPTPbeta inhibitor (Compound 1) was developed (see Example 11) as an agent to enhance the activation of VEGFR2 and Tie2 (FIG. 10). Compound was at least 10 fold selective for HPTPbeta versus the any of the other phosphatases except for the closely related HPTPeta. […] Clearly, these assays could be used to optimize the potency and selectivity and to test the efficacy of other HPTPbeta inhibitors.

[7] = system: HEK293H cells; assay: In-cell phosphatase activity (DiFMUP) in HPTPbeta-transfected HEK293H cells; format: cell-based, human; conditions: 500 μM, 15 minutes pre-incubation
Protocol: For phosphatase activity in human embryonic kidney cells, HEK293H (Gibco) are grown in suspension in 293SFM media (Gibco) and transfected on 100 mm dishes using LIPOFECTAMINE™ 2000 (Invitrogen), a proprietary formulation for the transfection of nucleic acids (DNA and RNA) into eukaryotic cells. After 24 hours cells are resuspended transferred back to shaker flasks for an additional 24 hours. Phosphatase activity is measured using DiFMUP in 96 well plates as above with 100,000 cells/well. For inhibition of tyrosine phosphatases, the cells are pre-incubated with Bis-maloalto-organovanadium (BMOV) for 15 minutes prior to the addition of DIFMUP. HPTPbeta protein expression is confirmed after each experiment in parallel plates by western blotting.

[8] = system: HUVEC; assay: In-cell phosphatase activity (DiFMUP) in HPTPbeta adenovirus infected HUVECs; format: cell-based, human; conditions: 500 μM
Protocol: In cell phosphatase assays are accomplished by infecting Human Umbilical Vein Endothelial Cells with HPTPbeta, GFP, or Empty adenovirus in 100 mm dishes for 24 hours. Infected cells were trypsinized and re-plated at 5,000 cells/well in a 96 well plate and allowed to attach for 2 hours in complete growth medium (EGM). Complete medium was replaced with Hanks Buffered Saline (HBSS, Gibco) and substrate fluorescence are measured 15 minutes after the addition of 100 uM DiFMUP substrate (Molecular Probes) using a Victor V plate reader as mentioned in Example 2.

Row | Compound | ligand stimulated tyrosine phosphorylation of Tie-2 [1] | cell survival with VEGF165 stimulation ([2]; 500 pM VEGF165, 72 hours, vs vehicle) | cell survival with Ang-1 stimulation ([2]; 250 ng/mL Ang-1, 72 hours, vs vehicle) | basal cell survival ([2]; no ligand, vs untreated controls) | potency of inhibition of HPTPbeta activity [3] | ligand stimulated tyrosine phosphorylation of VEGFR2 [4] | vessel area [5] | vessel extent [5] | selectivity for HPTPbeta over the other phosphatases tested [6] | phosphatase activity in HEK293H cells [7] | phosphatase activity in HUVEC's [8]
1 | CNC(=O)C(Cc1ccc(NS(=O)(=O)O)cc1)NC(=O)OC(C)(C)C (stereo in doubt) [Compound 1, (R)-[1-Methylcarbamoyl-2-(4-sulfoamino-phenyl)-ethyl]-carbamic acid tert-butyl ester] | increased | increased cell survival | increased cell survival | increased basal levels of survival | nanomolar | increased | significant increases | significant increases | at least 10 fold |  | 
2 | Cc1occc(=O)c1[O-].Cc1occc(=O)c1[O-].[O]=[V+2] [BMOV, Bis-maloalto-organovanadium] |  |  |  |  |  |  |  |  |  | inhibited | inhibited
